Laboratory results as given in ChEMBL document CHEMBL5252515, “Discovery of 6-Amino-2-{[(1S)-1-methylbutyl]oxy}-9-[5-(1-piperidinyl)pentyl]-7,9-dihydro-8H-purin-8-one (GSK2245035), a Highly Potent and Selective Intranasal Toll-Like Receptor 7 Agonist for the Treatment of Asthma” (J Med Chem, 2016).

Columns and labels:
[1] = Toxicity in mouse assessed as dermal irritancy at 1000 ug/ml administered intranasally after 4 hrs; details: in vivo, inhaled_or_intranasal, dose 1000 µg/ml
Toll-like receptor 7 [2] = molecular target: T1, Toll-like receptor 7 (Homo sapiens, UniProt Q9NYK1); assay: Agonist activity at TLR7 in human whole blood assessed as induction of IL-1beta production after 20 hrs by electrochemiluminescence assay; type: tissue-based
T1 sequence (Q9NYK1 whole entry): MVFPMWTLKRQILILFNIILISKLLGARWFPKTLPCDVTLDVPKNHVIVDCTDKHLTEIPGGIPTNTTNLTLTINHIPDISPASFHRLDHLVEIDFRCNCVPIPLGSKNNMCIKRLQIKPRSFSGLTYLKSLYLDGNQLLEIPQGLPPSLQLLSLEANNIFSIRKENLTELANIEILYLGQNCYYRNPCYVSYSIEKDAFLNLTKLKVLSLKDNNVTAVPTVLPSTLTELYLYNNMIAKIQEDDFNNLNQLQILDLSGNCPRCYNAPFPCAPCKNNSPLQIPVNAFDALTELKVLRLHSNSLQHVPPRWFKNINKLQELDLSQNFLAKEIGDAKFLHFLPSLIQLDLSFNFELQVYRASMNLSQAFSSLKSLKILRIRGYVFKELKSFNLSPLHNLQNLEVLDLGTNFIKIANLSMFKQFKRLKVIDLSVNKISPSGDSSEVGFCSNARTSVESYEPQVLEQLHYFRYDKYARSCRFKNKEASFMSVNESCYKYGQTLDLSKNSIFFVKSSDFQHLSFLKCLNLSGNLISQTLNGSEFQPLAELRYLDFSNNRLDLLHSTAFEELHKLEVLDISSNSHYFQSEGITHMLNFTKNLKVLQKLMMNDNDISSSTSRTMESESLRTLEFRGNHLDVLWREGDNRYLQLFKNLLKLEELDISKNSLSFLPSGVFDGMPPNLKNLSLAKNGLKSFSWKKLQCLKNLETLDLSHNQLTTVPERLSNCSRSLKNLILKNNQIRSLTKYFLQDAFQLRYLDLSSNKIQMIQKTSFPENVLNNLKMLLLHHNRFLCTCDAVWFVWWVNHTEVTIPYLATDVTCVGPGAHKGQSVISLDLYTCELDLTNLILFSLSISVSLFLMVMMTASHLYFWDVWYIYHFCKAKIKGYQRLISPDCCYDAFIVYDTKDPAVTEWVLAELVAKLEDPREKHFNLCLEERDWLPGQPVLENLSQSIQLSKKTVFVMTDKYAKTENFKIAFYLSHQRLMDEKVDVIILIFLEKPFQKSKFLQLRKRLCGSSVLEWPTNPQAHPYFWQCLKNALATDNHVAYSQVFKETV

Toll-like receptor 7 [3] = molecular target: T1, Toll-like receptor 7; assay: Agonist activity at TLR7 in human whole blood assessed as induction of IFN-gamma production after 20 hrs by electrochemiluminescence assay; type: tissue-based
[4] = molecular target: T2, Toll-like receptor 7 (Macaca fascicularis) (UniProt B3Y652); assay: In vivo target occupancy at TLR7 in cynomolgus monkey assessed as fold increase in OAS2 mRNA expression in nasal scrape at 3 ng/kg administered intranasally incubated for 24 hrs by TaqMan analysis (reference value: 1); type: functional
T2 sequence (whole entry): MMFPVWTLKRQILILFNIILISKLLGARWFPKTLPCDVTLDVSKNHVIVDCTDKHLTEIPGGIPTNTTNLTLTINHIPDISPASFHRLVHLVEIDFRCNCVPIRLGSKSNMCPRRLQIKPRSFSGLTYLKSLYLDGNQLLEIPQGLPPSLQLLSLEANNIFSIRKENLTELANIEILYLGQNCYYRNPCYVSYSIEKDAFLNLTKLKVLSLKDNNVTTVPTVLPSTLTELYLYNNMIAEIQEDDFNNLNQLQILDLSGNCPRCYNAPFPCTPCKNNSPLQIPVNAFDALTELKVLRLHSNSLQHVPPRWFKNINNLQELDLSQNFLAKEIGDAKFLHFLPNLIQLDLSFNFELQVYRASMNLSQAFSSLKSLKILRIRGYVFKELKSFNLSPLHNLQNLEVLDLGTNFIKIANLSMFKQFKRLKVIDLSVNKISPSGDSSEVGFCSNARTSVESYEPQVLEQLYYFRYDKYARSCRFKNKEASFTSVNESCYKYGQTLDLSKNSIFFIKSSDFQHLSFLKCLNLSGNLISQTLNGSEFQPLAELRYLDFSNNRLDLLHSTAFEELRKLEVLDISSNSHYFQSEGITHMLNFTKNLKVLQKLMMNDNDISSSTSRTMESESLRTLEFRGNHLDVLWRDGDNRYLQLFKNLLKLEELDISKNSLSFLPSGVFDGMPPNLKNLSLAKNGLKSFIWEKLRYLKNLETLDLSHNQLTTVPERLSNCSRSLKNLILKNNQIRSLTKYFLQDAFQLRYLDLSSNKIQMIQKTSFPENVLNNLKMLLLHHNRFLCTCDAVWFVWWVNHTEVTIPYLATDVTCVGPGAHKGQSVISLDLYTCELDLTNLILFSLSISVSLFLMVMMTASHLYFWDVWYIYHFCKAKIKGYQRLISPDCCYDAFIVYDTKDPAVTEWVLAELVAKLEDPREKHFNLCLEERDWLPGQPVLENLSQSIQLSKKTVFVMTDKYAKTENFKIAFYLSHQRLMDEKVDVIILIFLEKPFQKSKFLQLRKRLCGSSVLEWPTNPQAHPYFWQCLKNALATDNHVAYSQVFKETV

[5] = Tmax in rat after intranasal administration; type: ADME; details: in vivo, inhaled or intranasal
[6] = Ocular toxicity in monkey at 1000 ug/ml post single dose administration after 48 hrs; design: species or system Macaca mulatta; details: rhesus monkey, in vivo, dose 1000 µg/ml
[7] = Toxicity in monkey assessed as NOAEL after 8 weeks; design: species or system Macaca mulatta; details: rhesus monkey, in vivo, 1344 h
[8] = Toxicity in male rat assessed as NOAEL after 14 days; details: in vivo, time 14 day
[9] = molecular target: T2, Toll-like receptor 7 (Macaca fascicularis); assay: In vivo target occupancy at TLR7 in cynomolgus monkey assessed as fold increase in GBP1 mRNA expression in nasal scrape at 30 ng/kg administered intranasally incubated for 24 hrs by TaqMan analysis (reference value: 2.4); type: functional
[10] = molecular target: T2, Toll-like receptor 7 (Macaca fascicularis); assay: In vivo target occupancy at TLR7 in cynomolgus monkey assessed as fold increase in OAS1 mRNA expression in nasal scrape at 30 ng/kg administered intranasally incubated for 24 hrs by TaqMan analysis (reference value: 1.2); type: functional
Toll-like receptor 7 [11] = molecular target: T1, Toll-like receptor 7; assay: Agonist activity at TLR7 in human U2OS cells; type: cell-based
Toll-like receptor 7 [12] = molecular target: T1, Toll-like receptor 7; assay: Agonist activity at TLR7 in human whole blood assessed as induction of IL-12p70 production after 20 hrs by electrochemiluminescence assay; type: tissue-based
[13] = Bioavailability in rat after intranasal administration; type: ADME, organism-based; details: in vivo, inhaled or intranasal

CCC[C@H](C)Oc1nc(N)c2[nH]c(=O)n(CCCCCN3CCCCC3)c2n1 [GSK-2245035]
Activity [1]: Non-Toxic
EC50 (Toll-like receptor 7 [2]): 5.01 µM
EC50 (Toll-like receptor 7 [3]): 1.26 µM
fold change (FC) [4]: 128
Tmax [5]: ≤ 5 min
Activity [6]: Toxic
NOAEL [7]: 0.0359 µg/kg
NOAEL at 336 h [8]: 0.453 mg/kg/day
fold change (FC) [9]: 97.6
fold change (FC) [10]: 53.7
EC50 (Toll-like receptor 7 [11]): 2 µM
EC50 (Toll-like receptor 7 [12]): 0.0631 µM
bioavailability [13]: 12%
